From patent US7659299B2, “Compounds inhibiting the binding of sap for treating osteoarthritis” (Pentraxin Therapeutics Limited, priority 2003, dated 2010)
pKd: −log10 of the molar value. Several values for one entry are separate records, joined by “and”; a condition that tells them apart may be missing. Identical values can stand only once.

Columns and labels:
[1] = target: T1, SAP (Homo sapiens, UniProt P02743); assay: Isothermal calorimetry: dissociation constants between SAP and compounds; assay type: binding; details: replicate measurements, read-out: Kd in micromoles per liter (replicate measurements)
Description: Surface plasmon resonance (SPR) is a low throughput but powerfully informative method to identify compounds that are bound by, or themselves bind to SAP, either in a calcium dependent fashion or independently of calcium, for the purposes of the present invention. For example, low molecular weight compounds that inhibit binding of SAP to its macromolecular ligands, including target ligands relevant to the present invention, can be detected by their effect on the signal generated by fluid phase SAP binding to ligand immobilised on the solid phase (Example A). Furthermore, when SAP itself is immobilised on the solid phase in an SPR instrument, the interaction with it of test molecules provided in the fluid phase generates a signal that can be detected and quantified. Purified SAP immobilized within an SPR instrument gives a quantifiable signal when it is exposed to another molecule that forms a complex with the SAP, and this is distinct from the absence of such a signal if no complex is formed. […] Another low throughput but powerful direct method is isothermal calorimetry that measures the heat of interaction in solution between SAP and test compounds according to the present invention. The binding affinity can be measured precisely as a guide to potential efficacy. Typical results by this method for the dissociation constants, Kd, between SAP and various compounds are as follows: […]

[2] = target: T1, SAP; assay: Inhibition of binding of 125I radiolabelled SAP to Neisseria meningitidis immobilized in microtitre plates; set-up: 5 μl of radiolabelled SAP in TN; from tissue; details: read-out: Percent inhibition of binding of radiolabelled SAP to immobilized Neisseria meningitidis
[3] = target: T1, SAP; assay: Inhibition of binding of 125I radiolabelled SAP to native long chromatin immobilized in microtitre plates; set-up: 5 μl of radiolabelled SAP in TN; from tissue; details: read-out: Percent inhibition of binding of radiolabelled SAP to immobilized native long chromatin
[4] = target: T1, SAP; assay: Inhibition of binding of 125I radiolabelled SAP to influenza virus immobilized in microtitre plates; set-up: 5 μl of radiolabelled SAP in TN; from tissue; details: read-out: Percent inhibition of binding of radiolabelled SAP to immobilized influenza virus

T1 sequence (P02743 20-223): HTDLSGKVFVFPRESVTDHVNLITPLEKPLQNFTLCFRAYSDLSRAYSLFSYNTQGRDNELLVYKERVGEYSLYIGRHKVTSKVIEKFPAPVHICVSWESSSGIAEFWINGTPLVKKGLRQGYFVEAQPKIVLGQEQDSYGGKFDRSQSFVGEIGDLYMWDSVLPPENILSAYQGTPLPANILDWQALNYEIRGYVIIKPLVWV

`O=C(O)[C@H]1CCCN1C(=O)CCCCC(=O)N1CCC[C@@H]1C(=O)O` [Ro-63-8695, (R)-1-[6-[(R)-2-Carboxy-pyrrolidin-1-yl]-6-oxo-hexanoyl]pyrrolidine-2-carboxylic acid] was tested, and the pKd [1] was 7.86 and 8.23 and 8.19 and 8.06, the inhibition at 0.2 µM ([2]; compound 200 nM) was 5% and the inhibition at 2 µM ([2]; compound 2 μM) was 61%. The inhibition at 20 µM ([2]; compound 20 μM) was 74%, the inhibition at 200 µM ([2]; compound 200 μM) was 79% and the inhibition at 2000 µM ([2]; compound 2 mM) was 100%. The inhibition at 0.2 µM ([3]; compound 200 nM) was 1%, the inhibition at 2 µM ([3]; compound 2 μM) was 29% and the inhibition at 20 µM ([3]; compound 20 μM) was 69%. For the same compound, the inhibition at 200 µM ([3]; compound 200 μM) was 87%, the inhibition at 2000 µM ([3]; compound 2 mM) was 93% and the inhibition at 0.2 µM ([4]; compound 200 nM) was 36%. It also gave an inhibition at 2 µM ([4]; compound 2 μM) of 81%, an inhibition at 20 µM ([4]; compound 20 μM) of 90% and an inhibition at 200 µM ([4]; compound 200 μM) of 96%. For the same compound, the inhibition at 2000 µM ([4]; compound 2 mM) was 98%.
